Drawing on ChEMBL document CHEMBL5252554, “Stereodivergent Hydroxylation of Berkeleylactones by Penicillium turbatum” (J Nat Prod, 2023), this text covers MIC, IC50 and LD99 for six compounds.

As usually defined, the MIC is the lowest concentration that inhibits growth of the organism. In general, IC50 refers to the concentration at which inhibition is half-maximal.

Converted amounts (≈) assume the structure as drawn.

Assay [1] can be described thus: Antiproliferative activity against mouse NS-1 cells assessed as cell growth inhibition measured after 72 hrs by resazurin dye based assay. It is filed as functional. The conditions noted are these: for IC50: NS1, 72 h. (Resazurin is reduced to fluorescent resorufin, in cell work by metabolically active cells.)
The next assay relates to Staphylococcus aureus. Description: Antibacterial activity against Staphylococcus aureus ATCC 25923 assessed as bacterial growth inhibition measured after 48 hrs by resazurin dye based assay. The assay is classed as functional.
The test system of another assay is Giardia intestinalis. Nature of the assay: Antiprotozoal activity against Giardia duodenalis 713 assessed as protozoal growth inhibition measured after 96 hrs under anaerobic conditions. The assay is classed as functional.
The next assay has as its system Bacillus subtilis. Nature of the assay: Antibacterial activity against Bacillus subtilis ATCC 6633 assessed as bacterial growth inhibition measured after 48 hrs by resazurin dye based assay. It is filed as functional.
A further assay deals with Escherichia coli. Description: Antibacterial activity against Escherichia coli ATCC 25922 assessed as bacterial growth inhibition measured after 48 hrs by resazurin dye based assay. The assay is classed as functional, organism-based.
The next assay deals with Saccharomyces cerevisiae. Description: Antifungal activity against Saccharomyces cerevisiae ATCC 9763 assessed as fungal growth inhibition measured after 48 hrs by bromocresol green staining based method. It is filed as functional.

With `CO[C@@]12[C@H](COC(N)=O)C3=C(C(=O)C(C)=C(N)C3=O)N1C[C@@H]1N[C@@H]12` [MITOMYCIN], the MIC in assay [1] (time 72 hrs) turned out to be 0.93 µM (≈ 0.311 µg/mL).
Regarding `C[C@@H]1C[C@@H](O)CCCCCCC[C@H](O)[C@H](O)/C=C/C(=O)O1`, the MIC in the assay on Staphylococcus aureus was 50 µg/mL. Further, in assay [1], the IC50 came out at 32 µM. For the same compound, in the assay on Giardia intestinalis, the LD99 amounted to 50 µg/mL.
For the compound GENTAMICIN, the results for the MIC in the assay with Staphylococcus aureus, in the assay with Bacillus subtilis and in the assay on Escherichia coli were 0.8 µM, 0.8 µM and 1.7 µM, respectively.
Take `COC(=O)CCC(=O)O[C@H]1CCCCCCCCC[C@@H](C)OC(=O)/C=C/[C@H]1O`: the MIC in the assay on Staphylococcus aureus came to 25 µg/mL; in the assay with Bacillus subtilis, 12.5 µg/mL. Also, the IC50 in assay [1] stood at 5.9 µM.
Take `C[C@@H]1CCCCCCCCC[C@H](OC(=O)CCC(=O)O)C(=O)/C=C/C(=O)O1`: the MIC in the assay with Staphylococcus aureus worked out at 0.4 µg/mL. In addition, in assay [1], the IC50 stood at 3.1 µM.
As for `C[C@@H]1[C@H](O)[C@@H](C)/C=C/C=C/C=C/C=C/C=C/C=C/C=C/[C@H](O[C@@H]2O[C@H](C)[C@@H](O)[C@H](N)[C@@H]2O)C[C@@H]2O[C@](O)(C[C@@H](O)C[C@@H](O)[C@H](O)CC[C@@H](O)C[C@@H](O)CC(=O)O[C@H]1C)C[C@H](O)[C@H]2C(=O)O` [AMPHOTERICIN B], in the assay on Saccharomyces cerevisiae, the MIC worked out at 0.3 µM (≈ 0.277 µg/mL).
